Measured values as given in patent US8148391B2 (Cephalon, Inc., priority 2006, dated 2012).
Like-named read-outs stand apart in the source and are kept apart here. Each block holds one compound with its values, some of them ahead of it.

What was measured:
[1] = molecular target: T1, c-Met (cytoplasmic domain) (Homo sapiens, UniProt P08581); assay: c-Met Kinase Assay (same methods as for ALK, with modifications); type: biochemical
T1 construct: 10 ng/mL c-Met (cytoplasmic domain, Invitrogen Corporation #PV3143); purchased Invitrogen Corporation PV3143
T1 sequence (P08581 956-1390 limits assumed): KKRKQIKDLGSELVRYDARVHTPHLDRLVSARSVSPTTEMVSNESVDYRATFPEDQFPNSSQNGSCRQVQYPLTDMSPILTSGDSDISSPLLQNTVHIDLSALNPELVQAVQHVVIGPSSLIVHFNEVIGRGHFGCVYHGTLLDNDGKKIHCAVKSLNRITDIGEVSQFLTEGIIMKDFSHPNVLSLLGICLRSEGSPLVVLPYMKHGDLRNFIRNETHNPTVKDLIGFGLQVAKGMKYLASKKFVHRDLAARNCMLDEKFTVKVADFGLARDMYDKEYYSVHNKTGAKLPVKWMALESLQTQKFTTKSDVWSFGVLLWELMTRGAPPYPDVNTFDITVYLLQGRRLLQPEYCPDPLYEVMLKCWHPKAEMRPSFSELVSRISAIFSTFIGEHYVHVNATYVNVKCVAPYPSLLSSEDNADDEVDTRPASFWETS
In short: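 IC50 values were fitted by variable-slope sigmoidal regression of percent inhibition against log compound concentration. Phosphorylation was read with Eu-N1 PT66 antibody after a 15 min, 37 °C reaction. The reaction was initiated with 10 ng/mL c-Met cytoplasmic domain on wells coated with 10 μg/mL PLC-γ in TBS.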

[2] = molecular target: T2, baculovirus-expressed ALK (Homo sapiens, UniProt Q9UM73); assay: ALK Kinase Assay (ELISA-type, time-resolved fluorescence); type: biochemical
T2 construct: host or cells: baculovirus expression system
T2 sequence (Q9UM73 19-1620): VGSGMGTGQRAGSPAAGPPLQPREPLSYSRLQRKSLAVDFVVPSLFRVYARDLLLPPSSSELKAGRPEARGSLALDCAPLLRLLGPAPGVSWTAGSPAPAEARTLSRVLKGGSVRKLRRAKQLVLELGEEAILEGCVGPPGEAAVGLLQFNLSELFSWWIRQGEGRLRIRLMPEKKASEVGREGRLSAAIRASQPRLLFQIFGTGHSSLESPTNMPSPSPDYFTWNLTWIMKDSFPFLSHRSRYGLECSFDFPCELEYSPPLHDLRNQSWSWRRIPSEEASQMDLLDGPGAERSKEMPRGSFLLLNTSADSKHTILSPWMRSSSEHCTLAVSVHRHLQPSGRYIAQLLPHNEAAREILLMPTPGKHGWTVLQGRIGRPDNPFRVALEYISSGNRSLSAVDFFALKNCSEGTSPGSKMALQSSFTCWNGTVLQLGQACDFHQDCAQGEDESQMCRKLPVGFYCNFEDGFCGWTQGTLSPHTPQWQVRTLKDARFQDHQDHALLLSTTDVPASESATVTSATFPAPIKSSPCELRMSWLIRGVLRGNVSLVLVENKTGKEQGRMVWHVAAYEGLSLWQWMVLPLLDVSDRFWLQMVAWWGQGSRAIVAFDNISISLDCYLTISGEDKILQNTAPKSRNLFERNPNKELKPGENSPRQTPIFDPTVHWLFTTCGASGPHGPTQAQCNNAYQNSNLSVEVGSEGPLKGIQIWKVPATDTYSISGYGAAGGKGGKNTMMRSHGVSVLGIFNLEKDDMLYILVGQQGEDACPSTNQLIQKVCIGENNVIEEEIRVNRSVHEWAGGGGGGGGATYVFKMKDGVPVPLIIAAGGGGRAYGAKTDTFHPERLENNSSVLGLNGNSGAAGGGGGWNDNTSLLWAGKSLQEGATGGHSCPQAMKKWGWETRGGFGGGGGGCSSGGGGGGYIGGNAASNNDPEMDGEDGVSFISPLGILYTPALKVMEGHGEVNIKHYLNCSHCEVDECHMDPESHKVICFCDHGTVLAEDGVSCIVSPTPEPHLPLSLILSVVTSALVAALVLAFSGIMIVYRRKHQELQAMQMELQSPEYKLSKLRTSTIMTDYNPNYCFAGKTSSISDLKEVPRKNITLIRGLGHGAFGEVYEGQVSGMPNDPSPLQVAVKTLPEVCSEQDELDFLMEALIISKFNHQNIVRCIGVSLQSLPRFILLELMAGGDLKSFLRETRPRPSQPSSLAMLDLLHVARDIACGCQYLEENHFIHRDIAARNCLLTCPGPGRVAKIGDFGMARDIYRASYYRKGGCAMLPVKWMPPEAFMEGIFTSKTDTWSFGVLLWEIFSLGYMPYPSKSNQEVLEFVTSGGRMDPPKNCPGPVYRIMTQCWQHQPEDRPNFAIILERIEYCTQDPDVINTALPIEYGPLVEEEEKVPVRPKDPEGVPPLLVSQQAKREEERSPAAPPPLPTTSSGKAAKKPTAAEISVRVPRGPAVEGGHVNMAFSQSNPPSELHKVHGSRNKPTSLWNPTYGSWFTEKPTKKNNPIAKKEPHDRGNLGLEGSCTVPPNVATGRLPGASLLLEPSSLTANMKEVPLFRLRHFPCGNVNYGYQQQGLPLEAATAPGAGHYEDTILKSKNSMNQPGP
In short: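 Wells were coated with phospholipase C-γ at 10 μg/mL in Tris-buffered saline. Adding 30 ng/ml enzyme started the reaction, which ran at 37° C for 15 minutes before Eu-N1 PT66 antibody detection. Percent inhibition versus log10 concentration gave IC50 by variable-slope fit.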

[3] = c-Met kinase inhibition, 1 μM ATP (Km level), read-out: cMet Activity
[4] = ALK kinase inhibition, 1 μM ATP (Km level), read-out: ALK Activity
[5] = c-Met kinase inhibition, 1 μM ATP, read-out: cMet Activity
[6] = ALK kinase inhibition, 1 μM ATP, read-out: ALK Activity
[7] = 1 μM ATP (Km level), 10 ng/mL c-Met, read-out: cMet Activity (c-Met kinase inhibition, IC50 class)
[8] = 1 μM ATP (Km level), 30 ng/ml ALK, 37° C., 15 minutes, read-out: ALK Activity (ALK kinase inhibition, IC50 class)
[9] = 1 μM ATP (Km level), read-out: cMet Activity (c-Met Kinase Inhibition, IC50)
[10] = 1 μM ATP (Km level), read-out: ALK Activity (ALK Kinase Inhibition, IC50)

IC50 [1, 3]: > 10000 nM | IC50 [2, 4]: < 100 nM
Structure (SMILES): CCN1C(=O)CCCc2c1ccc(Nc1ncc(Cl)c(N[C@H]3[C@@H](C(N)=O)[C@@H]4C=C[C@H]3C4)n1)c2OC [Example 133, (1S,2S,3R,4R)-3-[5-Chloro-2-(1-ethyl-6-methoxy-2-oxo-2,3,4,5-tetrahydro-1H-benzo[b]azepin-7-ylamino)-pyrimidin-4-ylamino]-bicyclo[2.2.1]hept-5-ene-2-carboxylic acid amide]

IC50 [1, 3]: > 10000 nM | IC50 [2, 4]: < 100 nM
Structure (SMILES): CCC1C(=O)N(CC)CCc2cc(Nc3ncc(Cl)c(NC4CCCCC4NS(C)(=O)=O)n3)c(OC)cc21 [Example 151, N-{(1R,2R)-2-[5-Chloro-2-(1,3-diethyl-8-methoxy-2-oxo-2,3,4,5-tetrahydro-1H-benzo[d]azepin-7-ylamino)-pyrimidin-4-ylamino]-cyclohexyl-methanesulfonamide]

IC50 [1, 5]: 100 to 1000 nM | IC50 [2, 6]: 100 to 1000 nM
Structure (SMILES): C#CCNC(=O)c1cccc(F)c1Nc1nc(Nc2ccc3c(c2)N(C(=O)CN(C)C)CCCC3(C)C)ncc1Cl [Example 1631, 2-{5-Chloro-2-[1-(2-dimethylamino-acetyl)-5,5-dimethyl-2,3,4,5-tetrahydro-1H-benzo[b]azepin-8-ylamino]-pyrimidin-4-ylamino}-3-fluoro-N-prop-2-ynyl-benzamide]

IC50 [1, 5]: < 100 nM | IC50 [2, 6]: 100 to 1000 nM
Structure (SMILES): CCN1C(=O)CN(C(C)=O)Cc2ccc(Nc3ncc(Cl)c(Nc4c(Cl)cccc4C(=O)NC)n3)cc21 [Example 1854, 2-[2-(4-Acetyl-1-ethyl-2-oxo-2,3,4,5-tetrahydro-1H-benzo[e][1,4]diazepin-8-ylamino)-5-chloro-pyrimidin-4-ylamino]-3-chloro-N-methyl-benzamide]

IC50 [1, 7]: < 100 nM | IC50 [2, 8]: < 100 nM
Structure (SMILES): COCCN1CCc2ccc(Nc3ncc(Cl)c(Nc4ccccc4OCC#N)n3)cc2CC1 [Example 1240, (2-{5-Chloro-2-[3-(2-methoxy-ethyl)-2,3,4,5-tetrahydro-1H-3-benzazepin-7-ylamino]-pyrimidin-4-ylamino}-phenoxy)-acetonitrile]

IC50 [1, 7]: 100 to 1000 nM | IC50 [2, 8]: < 100 nM
Structure (SMILES): CN1C(=O)CCC(C)(C)c2cc(Nc3ncc(Cl)c(Nc4ccccc4S(=O)(=O)N(C)C)n3)ccc21 [Example 1325, 2-[5-Chloro-2-(1,5,5-trimethyl-2-oxo-2,3,4,5-tetrahydro-1H-benzo[b]azepin-7-ylamino)-pyrimidin-4-ylamino]-N,N-dimethyl-benzenesulfonamide]

IC50 [1, 5]: 100 to 1000 nM | IC50 [2, 6]: 1000 to 10000 nM
Structure (SMILES): CCOC(=O)N1CC(=O)Nc2cc(Nc3ncc(Cl)c(Nc4c(F)cccc4C(=O)NC)n3)ccc2C1 [Example 1869, 8-[5-Chloro-4-(2-fluoro-6-methylcarbamoyl-phenylamino)-pyrimidin-2-ylamino]-2-oxo-1,2,3,5-tetrahydro-benzo[e][1,4]diazepine-4-carboxylic acid ethyl ester]

IC50 [1, 7]: 1000 to 10000 nM | IC50 [2, 8]: < 100 nM
Structure (SMILES): COc1cc2c(cc1Nc1ncc(Cl)c(Nc3ccccc3S(=O)(=O)N(C)C)n1)CCN(C(=O)C(C)(C)N)CC2 [Example 1207, 2-{2-[3-(2-Amino-2-methyl-propionyl)-8-methoxy-2,3,4,5-tetrahydro-1H-benzo[d]azepin-7-ylamino]-5-chloro-pyrimidin-4-ylamino}-N,N-dimethyl-benzenesulfonamide]

IC50 [1, 5]: > 10000 nM | IC50 [2, 6]: < 100 nM
Structure (SMILES): COc1cc2c(cc1Nc1ncc(Cl)c(Nc3ccccc3S(=O)(=O)C(C)C)n1)CCN(CC(=O)N1CCOCC1)CC2 [Example 1536, 2-(7-{5-Chloro-4-[2-(propane-2-sulfonyl)-phenylamino]-pyrimidin-2-ylamino}-8-methoxy-1,2,4,5-tetrahydro-3-benzazepin-3-yl)-1-morpholin-4-yl-ethanone]

IC50 [1, 3]: > 10000 nM | IC50 [2, 4]: < 100 nM
Structure (SMILES): COc1cc(N2CCOCC2)ccc1Nc1nc(Nc2ccc3c(c2)CCN(C[C@H](O)C(F)(F)F)CC3)ncc1Cl [Example 330, (S)-3-{7-[5-Chloro-4-(2-methoxy-4-morpholin-4-yl-phenylamino)-pyrimidin-2-ylamino]-1,2,4,5-tetrahydro-benzo[d]azepin-3-yl}-1,1,1-trifluoro-propan-2-ol]

IC50 [1, 7]: > 10000 nM | IC50 [2, 8]: < 100 nM
Structure (SMILES): COc1cc2c(cc1Nc1ncc(Cl)c(N[C@H]3[C@@H](C(N)=O)[C@@H]4C=C[C@H]3C4)n1)CCC(NCCO)CC2 (single isomer, unassigned) [Example 1097]

IC50 [1, 9]: > 10000 nM | IC50 [2, 10]: < 100 nM
Structure (SMILES): COc1cc(N2CCN(C)CC2)ccc1Nc1nc(Nc2cccc3c2OCCCC3(C)C)ncc1Cl [Example 872, 5-Chloro-N*2*-(5,5-dimethyl-2,3,4,5-tetrahydro-benzo[b]oxepin-9-yl)-N*4*-[2-methoxy-4-(4-methyl-piperazin-1-yl)-phenyl]-pyrimidine-2,4-diamine]

Structure (SMILES): CNC(=O)c1ccccc1Nc1nc(Nc2ccc3c(c2)C2CCC3CN(C(C)C)C2)ncc1Cl (stereo not drawn) [Example 273, 2-[5-Chloro-2-(10-isopropyl-10-aza-tricyclo[6.3.2.0*2,7*]trideca-2,4,6-trien-4-ylamino)-pyrimidin-4-ylamino]-N-methyl-benzamide]
IC50 [1, 3]: < 100 nM | IC50 [2, 4]: < 100 nM

IC50 [1, 3]: < 100 nM | IC50 [2, 4]: < 100 nM
Structure (SMILES): CNC(=O)c1ccccc1Nc1nc(Nc2ccc3c(c2)CCN(C[C@H](OC)C(F)(F)F)CC3)ncc1Cl [Example 335, 2-{5-Chloro-2-[3-((S)-3,3,3-trifluoro-2-methoxy-propyl)-2,3,4,5-tetrahydro-1H-benzo[d]azepin-7-ylamino]-pyrimidin-4-ylamino}-N-methyl-benzamide]

IC50 [1, 7]: 100 to 1000 nM | IC50 [2, 8]: 100 to 1000 nM
Structure (SMILES): CNC(=O)c1cccc(F)c1Nc1nc(Nc2ccc3c(c2)C(=O)NCCO3)ncc1Cl [Example 1222, 2-[5-Chloro-2-(5-oxo-2,3,4,5-tetrahydro-1,4-benzoxazepin-7-ylamino)-pyrimidin-4-ylamino]-3-fluoro-N-methyl-benzamide]

IC50 [1, 5]: < 100 nM | IC50 [2, 6]: < 100 nM
Structure (SMILES): COCCN1CCc2ccc(Nc3ncc(Cl)c(Nc4ccccc4S(=O)(=O)N4CCCC4)n3)cc2CC1 [Example 1730, 5-Chloro-N*2*-[3-(2-methoxy-ethyl)-2,3,4,5-tetrahydro-1H-benzo[d]azepin-7-yl]-N*4*-[2-(pyrrolidine-1-sulfonyl)-phenyl]-pyrimidine-2,4-diamine]

IC50 [1, 5]: < 100 nM | IC50 [2, 6]: < 100 nM
Structure (SMILES): CNC(=O)c1cccc(F)c1Nc1nc(Nc2ccc3c(c2)N(CCOC)CCCC3(C)C)ncc1Cl [Example 1599, 2-{5-Chloro-2-[1-(2-methoxy-ethyl)-5,5-dimethyl-2,3,4,5-tetrahydro-1H-benzo[b]azepin-8-ylamino]-pyrimidin-4-ylamino}-3-fluoro-N-methyl-benzamide]

IC50 [1, 7]: 100 to 1000 nM | IC50 [2, 8]: < 100 nM
Structure (SMILES): COc1cc2c(cc1Nc1ncc(Cl)c(Nc3ccccc3S(=O)(=O)N3CCC(O)C3)n1)CCNC(=O)C2 (stereo not drawn) [Example 1193, 7-{5-Chloro-4-[2-(3-hydroxy-pyrrolidine-1-sulfonyl)-phenylamino]-pyrimidin-2-ylamino}-8-methoxy-1,3,4,5-tetrahydro-benzo[d]azepin-2-one]

IC50 [1, 9]: > 10000 nM | IC50 [2, 10]: 1000 to 10000 nM
Structure (SMILES): COc1ccc(Nc2ncc(Cl)c(Nc3ccccc3S(=O)(=O)N(C)C)n2)c2c1CCCC(N1CCOCC1)C2 (stereo not drawn) [Example 945, 2-[5-Chloro-2-(4-methoxy-8-morpholin-4-yl-6,7,8,9-tetrahydro-5H-benzocyclohepten-1-ylamino)-pyrimidin-4-ylamino]-N,N-dimethyl-benzenesulfonamide]

IC50 [1, 3]: < 100 nM | IC50 [2, 4]: < 100 nM
Structure (SMILES): CCN1CCc2ccc(Nc3ncc(Br)c(Nc4ccccc4C(=O)NC)n3)cc2CC1 [Example 192, 2-[2-(3-Ethyl-2,3,4,5-tetrahydro-1H-benzo[d]azepin-7-ylamino)-5-bromo-pyrimidin-4-ylamino]-N-methyl-benzamide]

IC50 [1, 5]: < 100 nM | IC50 [2, 6]: 100 to 1000 nM
Structure (SMILES): CNC(=O)c1cccc(F)c1Nc1nc(Nc2ccc3c(c2)NC(=O)CN(CCC(F)(F)F)C3)ncc1Cl [Example 1861, 2-{5-Chloro-2-[2-oxo-4-(3,3,3-trifluoro-propyl)-2,3,4,5-tetrahydro-1H-benzo[e][1,4]diazepin-8-ylamino]-pyrimidin-4-ylamino}-3-fluoro-N-methyl-benzamide]

IC50 [1, 9]: 100 to 1000 nM | IC50 [2, 10]: < 100 nM
Structure (SMILES): COCCN1CCc2ccc(Nc3ncc(Cl)c(Nc4ccccc4-c4ncccc4OC)n3)cc2CC1 [Example 990, 5-Chloro-N*2*-[3-(2-methoxy-ethyl)-2,3,4,5-tetrahydro-1H-benzo[d]azepin-7-yl]-N*4*-[2-(3-methoxy-pyridin-2-yl)-phenyl]-pyrimidine-2,4-diamine]

IC50 [1, 7]: > 10000 nM | IC50 [2, 8]: < 100 nM
Structure (SMILES): CCN1C(=O)C(NC(=O)C(F)(F)F)CCc2c1ccc(Nc1ncc(Cl)c(Nc3ccccc3S(=O)(=O)C(C)C)n1)c2OC (stereo not drawn) [Example 1333, N-(7-{5-Chloro-4-[2-(propane-2-sulfonyl)-phenylamino]-pyrimidin-2-ylamino}-1-ethyl-6-methoxy-2-oxo-2,3,4,5-tetrahydro-1H-benzo[b]azepin-3-yl)-2,2,2-trifluoro-acetamide]

IC50 [1, 7]: 1000 to 10000 nM | IC50 [2, 8]: < 100 nM
Structure (SMILES): COCCNC1CCc2cc(Nc3ncc(Cl)c(Nc4ccccc4S(=O)(=O)N4CCCC4)n3)c(OC)cc2CC1 (stereo not drawn) [Example 1081, 5-Chloro-N*2*-[3-methoxy-7-(2-methoxy-ethylamino)-6,7,8,9-tetrahydro-5H-benzocyclohepten-2-yl]-N*4*-[2-(pyrrolidine-1-sulfonyl)-phenyl]-pyrimidine-2,4-diamine]
